Experimental data as given in US20110269758A1, “NAPHTHYRIDINONES AS PROTEIN KINASE INHIBITORS” (MERCK PATENT GMBH, priority 2008, published 2011).

What was measured:
Aurora Kinase B = Aurora Kinase B (Homo sapiens, UniProt Q96GD4); assay: Biochemical enzyme assay for Aurora B activity (Caliper mobility shift); conditions: LC3000 or Desktop Profiler
Method: (§1) The Aurora assays described here were performed on two Caliper Life Sciences systems, the LC3000 and the Desktop Profiler. These provide data on enzyme activity via measurement of the relative amounts of phosphorylated or unphosphorylated fluorescently labelled substrate peptide at the end of an enzymatic reaction. These different states of peptide are resolved by applying a potential difference across the sample. The presence of a charged phosphate group on the product (as opposed to the substrate) causes a different peptide mobility between the two peptides. This is visualized by excitation of a fluorescent label on the substrate and product peptides and represented as peaks within the analysis software.
(§2) The Desktop Profiler utilizes the same prinicipal as the LC 3000 for calculating percentage conversion of a substrate to product. Caliper Life Sciences provided proprietary flash frozen pre-made 384 well plates containing selected kinases. Each column in the 384 well plate contained a particular selected kinase. A second plate, the ‘substrate plate’ contained a mix of fluorescently labeled peptide substrate and ATP. These were arranged in columns so that transfer for substrate plate to enzyme plate provided the correct enzyme with the correct substrate/ATP concentration.
(§3) Compounds were added to a thawed enzyme plate in the desired format, in single concentrations. Reactions were initiated by transfer of the substrate/ATP mix from the substrate plate. The enzyme plate was incubated for 90 mins at 25° C. The reaction was stopped by addition of 70 μl of Stop Buffer (100 mM HEPES pH 7.5, 0.015% Brij-35, 10 mM EDTA (Sigma, E7889)).
Plates were read in a manner identical to that of the LC3000, and the ratio between substrate and product peaks provided the activity of the enzyme in that well. This was best represented by a plate heat map which colors each well by percent inhibition as compared to positive and negative controls (no inhibitors and no ATP respectively).

Aurora Kinase A = molecular target: T1, Aurora Kinase A (Homo sapiens, UniProt O14965); assay: Biochemical enzyme assay for Aurora A activity (Caliper LC3000 / Desktop Profiler mobility shift); conditions: GST-Aurora A, 15 μM ATP, 90 min at 25° C.; LC3000 or Desktop Profiler; read-out: Aurora Kinase A IC50
T1 construct: full length Aurora A (1-403 amino acids); purchased Carna Biosciences 05-101
T1 sequence (O14965 1-403): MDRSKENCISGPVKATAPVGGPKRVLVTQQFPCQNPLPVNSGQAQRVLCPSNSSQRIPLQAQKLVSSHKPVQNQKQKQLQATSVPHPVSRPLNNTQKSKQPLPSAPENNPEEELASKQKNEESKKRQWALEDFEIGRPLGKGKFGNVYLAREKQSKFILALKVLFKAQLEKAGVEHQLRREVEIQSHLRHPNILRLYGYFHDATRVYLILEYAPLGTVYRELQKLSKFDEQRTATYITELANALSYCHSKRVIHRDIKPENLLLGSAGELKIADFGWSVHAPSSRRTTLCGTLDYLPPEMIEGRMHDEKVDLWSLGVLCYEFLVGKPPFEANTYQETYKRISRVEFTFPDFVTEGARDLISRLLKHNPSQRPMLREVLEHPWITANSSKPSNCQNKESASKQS
Method: as §1
In order to measure inhibitor activity of Aurora A inhibitors in the Caliper Life Sciences LC3000, a TTP Mosquito liquid handling instrument was used to place 0.25 μl of an appropriate concentration of inhibitor in 100% DMSO (for a dose response curve calculation) into each well of a 384-well plate.
The reaction was incubated for 90 min at 25° C., and then stopped by the addition of 70 μl of Stop buffer (100 mM HEPES pH 7.5, 0.015% Brij-35, 10 mM EDTA (Sigma, E7889)).
The plate was read on a Caliper LC 3000 in an Off-Chip mobility shift assay format, using the following parameters for a 12-sipper chip: screening pressure −1.8 psi, upstream voltage −2700, downstream voltage −1000. These conditions cause unphosphorylated substrate and phosphorylated product peptide to resolve as separate peaks allowing direct measurement of percentage of conversion of substrate to product.
as §2, §3
Plates were read in a manner identical to that of the LC3000, and the ratio between substrate and product peaks provided the activity of the enzyme in that well.

Chain of Aurora Kinase B (Q96GD4 whole entry): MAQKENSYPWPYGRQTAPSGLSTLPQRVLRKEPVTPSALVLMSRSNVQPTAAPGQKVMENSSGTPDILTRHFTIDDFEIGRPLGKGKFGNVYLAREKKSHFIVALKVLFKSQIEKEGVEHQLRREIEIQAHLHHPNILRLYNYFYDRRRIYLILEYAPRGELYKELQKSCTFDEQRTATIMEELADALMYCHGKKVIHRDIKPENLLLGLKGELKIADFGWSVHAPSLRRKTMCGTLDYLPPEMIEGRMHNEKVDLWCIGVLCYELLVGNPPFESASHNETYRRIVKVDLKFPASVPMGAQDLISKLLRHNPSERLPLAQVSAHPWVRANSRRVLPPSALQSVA

SMILES | IC50 (Aurora Kinase B) [nM] | IC50 (Aurora Kinase A) [nM]
O=C(Nc1ccc(Nc2ccnc3[nH]c(=O)ccc23)cc1)c1ccccc1C(F)(F)F [Compound 37, 2-Trifluoromethyl-N-(4-(7-oxo-7,8-dihydro-1,8-naphthyridin-4-yl-amino)phenyl)benzamide] | 601 to 1000 | 601 to 1000
O=C(Nc1ccc(Nc2ccnc3[nH]c(=O)ccc23)cc1)c1ccc(C(F)(F)F)cc1 [Compound 38, 4-Trifluoromethyl-N-(4-(7-oxo-7,8-dihydro-1,8-naphthyridin-4-yl-amino)phenyl)benzamide] | > 1000 | > 1000
O=C(Nc1ccc(Nc2ccnc3[nH]c(=O)ccc23)cc1)c1cccc(C(F)(F)F)c1F [Compound 39, 2-Fluoro-3-Trifluoromethyl-N-(4-(7-oxo-7,8-dihydro-1,8-naphthyridin-4-yl-amino)phenyl)benzamide] | > 1000 | > 1000
CN(C)CCCOc1ccc2c(Nc3ccc(C(=O)Nc4ccccc4)cc3)ccnc2n1 [Compound 69, N-(4-(7-(4-Dimethylamino-propoxy)-1,8-naphthyridin-4-yl-amino)phenyl)benzamide] |  | > 1000
CN(C)CCNC(=O)c1c(-c2ccccc2)c2c(Nc3ccc(NC(=O)c4ccc(F)c(F)c4)cc3)ccnc2[nH]c1=O [Compound 77, 5-[(3,4-Difluoro-benzoylamino)-phenylamino]-2-oxo-4-phenyl-1,2-dihydro-1,8-naphthyridine-3-carboxylic acid (2-dimethylamino-ethyl)-amide] |  | > 1000
O=C(Nc1ccc(Nc2ccnc3[nH]c(=O)c(C(=O)NC[C@H](O)CO)c(-c4ccccc4)c23)cc1)c1ccc(F)c(F)c1 [Compound 79, 5-[(3,4-Difluoro-benzoylamino)-phenylamino]-2-oxo-4-phenyl-1,2-dihydro-1,8-naphthyridine-3-carboxylic acid ((S)2,3-dihydroxypropyl)-amide] |  | > 1000
Nc1ncnc(Nc2ccc(NC(=O)c3ccccc3)cc2)c1C=O [Compound 83, N-[4-(6-Amino-5-formyl-pyrimidin-4-ylamino)-phenyl]-benzamide] |  | > 1000
COC(=O)c1cc2c(Nc3ccc(NC(=O)c4ccccc4)cc3)ncnc2[nH]c1=O [Compound 84, 4-(4-Benzoylamino-phenylamino)-7-oxo-7,8-dihydro-pyrido[2,3-d]pyrimidine-6-carboxylic acid methyl ester] |  | > 1000
O=C(Nc1ccc(Nc2ncnc3[nH]c(=O)c(C(=O)O)cc23)cc1)c1ccccc1 [Compound 85, 4-(4-Benzoylamino-phenylamino)-7-oxo-7,8-dihydro-pyrido[2,3-d]pyrimidine-6-carboxylic acid] |  | > 1000
CN(C)CCNC(=O)c1cc2c(Nc3ccc(NC(=O)c4ccccc4)cc3)ncnc2[nH]c1=O [Compound 86, 4-(4-Benzoylamino-phenylamino)-7-oxo-7,8-dihydro-pyrido[2,3-d]pyrimidine-6-carboxylic acid 2-(dimethylamino-ethyl)-amide] | 601 to 1000 | > 1000
Nc1cc2c(Nc3ccc(NC(=O)c4ccc(F)c(F)c4)cc3)ccnc2[nH]c1=O [Compound 89, 3,4-Difluoro-N-(4-(6-amino-7-oxo-7,8-dihydro-1,8-naphthyridin-4-yl-amino)phenyl)benzamide] | 1 to 300 | 1 to 300
Nc1cc2c(Nc3ccc(NC(=O)c4ccc(F)cc4C(F)(F)F)cc3)ccnc2[nH]c1=O [Compound 90, 4-Fluoro-2-trifluoromethyl-N-(4-(6-amino-7-oxo-7,8-dihydro-1,8-naphthyridin-4-yl-amino)phenyl)benzamide] | 1 to 300 | 1 to 300
O=C(Nc1ccc(Nc2ccnc3[nH]c(=O)cc(O)c23)cc1)c1ccc(F)cc1C(F)(F)F [Compound 91, 4-Fluoro-N-[4-(5-hydroxy-7-oxo-7,8-dihydro-[1,8]naphthyridin-4-ylamino)-phenyl]-2 trifluoromethyl-benzamide] | 1 to 300 | 1 to 300
O=C(Nc1ccc(Nc2ccnc3[nH]c(=O)cc(O)c23)cc1)c1ccccc1 [Compound 92, N-[4-(5-Hydroxy-7-oxo-7,8-dihydro-[1,8]naphthyridin-4-ylamino)-phenyl]-benzamide] | 1 to 300 | 1 to 300
O=C(Nc1ccc(Nc2ccnc3[nH]c(=O)cc(OCC4CC4)c23)cc1)c1ccccc1 [Compound 93, N-[4-(5-Cyclopropylmethoxy-7-oxo-7,8-dihydro-[1,8]naphthyridin-4-ylamino)-phenyl]benzamide] | 1 to 300 | 1 to 300

Further lines, results first:

IC50 (Aurora Kinase B) [nM] | IC50 (Aurora Kinase A) [nM] | SMILES
1 to 300 | 1 to 300 | Nc1ccc(NC(=O)c2ccccc2C(F)(F)F)cc1 [Compound 5, N-(4-Aminophenyl)-2-trifluoromethyl-benzamide]
1 to 300 | 1 to 300 | Nc1ccc(NC(=O)c2ccc(C(F)(F)F)cc2)cc1 [Compound 6, N-(4-Aminophenyl)-4-trifluoromethyl-benzamide]
1 to 300 | 1 to 300 | Nc1ccc(NC(=O)c2c(F)cccc2F)cc1 [Compound 9, N-(4-Aminophenyl)-2,6-difluoro-benzamide]
 | 1 to 300 | O=C(Nc1ccc(Nc2ccnc3nc(Cl)ccc23)cc1)c1ccccc1 [Compound 63, N-(4-(7-Chloro-1,8-naphthyridin-4-yl-amino)phenyl)benzamide]
 | 1 to 300 | CN(C)C1CCN(c2ccc3c(Nc4ccc(C(=O)Nc5ccccc5)cc4)ccnc3n2)CC1 [Compound 64]
 | 1 to 300 | CC(C)(C)C(=O)Nc1nccc(Cl)c1C(=O)c1ccccc1 [Compound 73, N-(3-Benzoyl-4-chloropyridin-2-yl)-2,2-dimethylpropanamide]
 | 1 to 300 | Nc1nccc(Cl)c1C(=O)c1ccccc1 [Compound 74, (2-Amino-4-chloro-pyridin-3-yl)-phenyl-methanone]
 | 1 to 300 | CC(C)(C)OC(=O)c1c(-c2ccccc2)c2c(Cl)ccnc2[nH]c1=O [Compound 75, 5-Chloro-2-oxo-4-phenyl-1,2-dihydro-1,8-naphthyridi-3-carboxylic acid tert-butyl ester]
 | 1 to 300 | O=C(Nc1ccc(Nc2ccnc3[nH]c(=O)c(C(=O)O)c(-c4ccccc4)c23)cc1)c1ccc(F)c(F)c1 [Compound 76, 5-[(3,4-Difluoro-benzoylamino)-phenylamino]-2-oxo-4-phenyl1,2-dihydro-1,8-naphthyridine-3-carboxylic acid]
 | 1 to 300 | O=C(Nc1ccc(Nc2ccnc3[nH]c(=O)c(C(=O)NCCO)c(-c4ccccc4)c23)cc1)c1ccc(F)c(F)c1 [Compound 78, 5-[(3,4-Difluoro-benzoylamino)-phenylamino]-2-oxo-4-phenyl-1,2-dihydro-1,8-naphthyridine-3-carboxylic acid (2-hydroxy-ethyl)-amide]
 | 1 to 300 | O=C(O)Cc1cc2c(Cl)ccnc2[nH]c1=O [Compound 80, (5-Chloro-2-oxo-1,2-dihydro-1,8-naphthyridin-3-yl)-acetic acid]
 | 1 to 300 | O=C(Cc1cc2c(Nc3ccc(NC(=O)c4ccc(F)c(F)c4)cc3)ccnc2[nH]c1=O)NCCO [Compound 82]
 | 1 to 300 | O=C(Nc1ccc(Nc2ccnc3[nH]c(=O)c([N+](=O)[O-])cc23)cc1)c1ccc(F)c(F)c1 [Compound 87, 3,4-Difluoro-N-(4-(6-nitro-7-oxo-7,8-dihydro-1,8-naphthyridin-4-ylamino)phenyl)benzamide]
 | 1 to 300 | O=C(Nc1ccc(Nc2ccnc3[nH]c(=O)c([N+](=O)[O-])cc23)cc1)c1ccc(F)cc1C(F)(F)F [Compound 88, 4-Fluoro-2-trifluoromethyl-N-(4-(6-nitro-7-oxo-7,8-dihydro-1,8-naphthyridin-4-yl-amino)phenyl)benzamide]
